This note sets out measurements from ChEMBL document CHEMBL1201862, “PubChem BioAssay data set” (2004).

Among the test systems are 786-0; ACHN; CAKI-1; HCT-116; IGROV-1; MCF7; MOLT-4; Malme-3M; NCI-H23; NCI-H460; NCI/ADR-RES; OVCAR-3; OVCAR-5; OVCAR-8; SK-MEL-2; SNB-75; SW-620; U-251; UACC-257; NCI-H522.
Common to all, as to test: NCI-60 cell line screen, 48 h

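Grown in 96-well plates, cells were treated for 48 hours with each compound at five concentrations. Insufficient inhibition: endpoint recorded as highest concentration tested. Abbreviation: GI50, concentration required for 50% inhibition of growth.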 Active and inactive are the calls of the source. Rule as the data show it: active = GI50 up to about 1.1 µM and inactive = higher.

As for `COc1ccc(/C=N/NS(=O)(=O)c2ccc(/C=C3\NC(=O)N(C)C3=O)cc2)cc1`, the GI50 in the assay on 786-0 is > 100 µM (inactive); with ACHN, > 100 µM (inactive); with CAKI-1, > 100 µM (inactive); in the assay with HCT-116 it was > 100 µM (inactive); with IGROV-1, 43.6 µM (inactive); with MCF7, 40.9 µM (inactive). Moreover, the GI50 is 63.5 µM (inactive) with MOLT-4; > 100 µM (inactive) in the assay on Malme-3M; 92.9 µM (inactive) in the assay with NCI-H23; 37.5 µM (inactive) with NCI-H460; > 100 µM (inactive) in the assay on NCI/ADR-RES; 40.6 µM (inactive) in the assay with OVCAR-3. The GI50 was > 100 µM (inactive) in the assay with OVCAR-5; 56.2 µM (inactive) in the assay on OVCAR-8; > 100 µM (inactive) in the assay with SK-MEL-2; 45.6 µM (inactive) in the assay on SNB-75; > 100 µM (inactive) in the assay with SW-620; > 100 µM (inactive) in the assay on U-251. Further, the GI50 in the assay with UACC-257 is 57.8 µM (inactive).

As to `COc1ccc2nc3c4c(nccc4c2c1)-c1ncccc1C3=O`, the GI50 is 0.0246 µM (active) in the assay on 786-0; 0.0116 µM (active) in the assay on ACHN; 0.109 µM (active) in the assay on CAKI-1; 0.0124 µM (active) with HCT-116; 0.0294 µM (active) in the assay on IGROV-1; 0.021 µM (active) in the assay with MCF7. The GI50 is 0.847 µM (active) in the assay on MOLT-4; 0.0791 µM (active) with Malme-3M; 0.0887 µM (active) in the assay on NCI-H23; 0.0261 µM (active) in the assay on NCI-H460; 0.201 µM (active) in the assay with NCI/ADR-RES; 0.005 µM (active) with OVCAR-3. Besides, the GI50 is 0.971 µM (active) in the assay with OVCAR-5; 0.034 µM (active) in the assay on OVCAR-8; 0.376 µM (active) in the assay on SK-MEL-2; 0.0787 µM (active) with SNB-75; 0.0121 µM (active) in the assay on SW-620; 0.0319 µM (active) with U-251. Besides, in the assay with UACC-257, the GI50 is 0.0834 µM (active).

Consider `c1ccc2c(c1)c1c(n2CCOCCN2CCOCC2)CCCC1`, for which the GI50 is > 10 µM (inactive) with 786-0; 30.8 µM (inactive) in the assay on ACHN; 15.2 µM (inactive) with CAKI-1; 29.8 µM (inactive) in the assay on HCT-116; 36 µM (inactive) in the assay on IGROV-1; 38.8 µM (inactive) in the assay with MCF7. Also, the GI50 in the assay on MOLT-4 was 25 µM (inactive); in the assay with Malme-3M, 13.8 µM (inactive); in the assay on NCI-H23, 32.3 µM (inactive); in the assay on NCI-H460, 27.5 µM (inactive); with NCI/ADR-RES, 16.3 µM (inactive); in the assay with OVCAR-3, 26.9 µM (inactive). For the same compound, the GI50 in the assay on OVCAR-5 is 25.1 µM (inactive); in the assay on OVCAR-8, 36.7 µM (inactive); in the assay with SK-MEL-2, 24.2 µM (inactive); in the assay on SNB-75 it was 2.36 µM (inactive); in the assay with SW-620, 34.1 µM (inactive); with U-251, 23.6 µM (inactive). In addition, the GI50 with UACC-257 is 21.1 µM (inactive).

Take `COc1cc(OC)c(C2c3cc4c(cc3OC(N3CCCC3)C2C)OCO4)c(OC)c1` (stereo not drawn): the GI50 with 786-0 is 15.9 µM (inactive); in the assay with ACHN, 5.11 µM (inactive); with HCT-116, 3.98 µM (inactive); with IGROV-1, 13.5 µM (inactive); in the assay on MCF7 it was 14.9 µM (inactive); in the assay on MOLT-4 it was 10.9 µM (inactive). In addition, the GI50 in the assay on NCI-H23 is 14.8 µM (inactive); in the assay with NCI-H460, 13.2 µM (inactive); with NCI-H522, 15.3 µM (inactive); in the assay on NCI/ADR-RES, 15.2 µM (inactive); with OVCAR-3, 4.26 µM (inactive); in the assay on OVCAR-5, 18.5 µM (inactive). The GI50 with OVCAR-8 was 16.3 µM (inactive); with SK-MEL-2 it was 18.7 µM (inactive); in the assay on SW-620, 9.59 µM (inactive); in the assay on UACC-257, 19.2 µM (inactive).
